Laboratory results taken from US8598413B2, “AAD-1 event DAS-40278-9, related transgenic corn lines, event-specific identification thereof, and methods of weed control involving AAD-1” (Dow AgroSciecnes, LLC., priority 2009, dated 2013).

Columns and labels:
[1] = system: hybrid corn containing the aad-1 gene; experiment: 2,4-D amine applied 7, 15 or 30 days preplanting, corn (Example 13); type: in vivo; conditions: 1120, 2240, 4480 g ae/ha at 7, 15 or 30 days preplanting
From the text: Preemergence applications of 2,4-D amine are applied at rates of 1120, 2240, 4480 g ae/ha at 7 days, 15 days, or 30 days preplanting to hybrid corn containing the aad-1 gene and conventional control hybrids. The preemergence applications are applied using art recognized procedures to field plots which are located at geographically distinct locales. Herbicide-treated plots are paired with untreated plots to provide accurate evaluation of emergence and early season growth. Approximately 16-21 days after planting and 2,4-D applications at 7, 15 or 30 days preplanting; injury of the conventional control hybrids and hybrid corn containing aad-1 are measured.

[2] = system: hybrid corn containing pDAS1740-278; experiment: Field tolerance to preemergence applications of 2,4-D (Example 13, Table 31); type: in vivo; conditions: PRE (0-2 days after planting), evaluated 16-21 days after application, pDAS1740-278 Hybrid
Experimental: (§1) Transgenic hybrid corn (pDAS1740-278) containing the aad-1 gene which encodes the aryloxyalkanoate dioxygenase (AAD-1) protein was evaluated for tolerance to preemergence applications of 2,4-D in the field. Trials were conducted at multiple locations in Mississippi, Indiana, and Minnesota using a randomized complete block design with three replications of two row plots, approximately 6 m in length, at each site. Herbicide-treated plots were paired with untreated plots to provide accurate evaluation of emergence and early season growth. Herbicide treatments of 1120, 2240, and 4480 g ae/ha of 2,4-D amine were applied shortly after planting but before crop emergence (0-2 days after planting). Soil and precipitation information for these trials is contained in Table 30.

[3] = system: transgenic cotton containing the aad-1 gene; experiment: Field tolerance of aad-1 cotton to preemergence applications of 2,4-D (Example 13); type: in vivo
Experimental: Transgenic cotton containing the aad-1 gene which encodes the aryloxyalkanoate dioxygenase (AAD-1) protein was evaluated for tolerance to preemergence applications of 2,4-D in the field. Trials consisted of three replications and were conducted at multiple locations in Mississippi, Georgia, Tennessee, and Arkansas. A randomized complete block design of a single row separated by a guard row, approximately 10 feet (20 feet for the Mississippi trial) in length was used. Seed was planted using 8 seed per foot, plants were then hand thinned to 3.5 plants/foot of row. Herbicide-treated plots were paired with untreated plots to provide accurate evaluation of emergence and early season growth. All plots received at least ½ inch of rain or irrigation water within 24 hours of application. Herbicide treatments of 560, 1120, 2240, and 4480 g ae/ha of 2,4-D amine (WEEDAR 64, Nufarm, Burr Ridge, Ill.) were applied shortly after planting but before crop emergence. Soil and precipitation information for these trials is contained in Table 32.

[4] = system: conventional control hybrid; experiment: Field tolerance to preemergence applications of 2,4-D (Example 13, Table 31); type: in vivo, corn; conditions: PRE (0-2 days after planting), evaluated 16-21 days after application
Experimental: as §1

[5] = preemergence 560, 1120, 2240 and 4480 gm ae/ha

O=C(O)COc1ccc(Cl)cc1Cl [2,4-D, 2,4-dichlorophenoxyacetic acid]
tolerance of preemergence treatments [1]: robust tolerance
Percent Plant Injury ([2]; 1120 g ae/ha): 3%
Percent Plant Injury ([2]; 2240 g ae/ha): 4%
Percent Plant Injury ([2]; 4480 g ae/ha): 9%
Chlorosis ([3]; 560, 1120, 2240 and 4480 gm ae/ha, remainder of the season): not detected
Injury ([3]; 560 and 1120 gm ae/ha): not significantly different from the untreated control plot
growth inhibition ([3]; 560 and 1120 gm ae/ha, 7 to 8, 11 to 14, 27 to 30 and 52 to 57 days after application): less than 2%
Chlorosis ([3]; 560 and 1120 gm ae/ha, 7 to 8 days after application): not detected
stand reduction ([3]; 560 gm ae/ha, 7 to 8 days after planting and preemergence application): 3%
stand reduction ([3]; 560 gm ae/ha, 11 to 14 days after planting and application): 5%
stand reduction ([3]; 1120 gm ae/ha, 7 to 8 days after planting and preemergence application): no reduction
stand reduction ([3]; 1120 gm ae/ha, 11 to 14 days after planting and application): 2%
Chlorosis, visual rating ([3]; 2240 and 4480 gm ae/ha, 7-8 days after application): < 5%
growth inhibition ([3]; 2240 gm ae/ha): < 10%
stand reduction ([3]; 2240 gm ae/ha, 7 to 8 days after planting and preemergence application): 19%
stand reduction ([3]; 2240 gm ae/ha, 11 to 14 days after planting and application): 14%
growth inhibition ([3]; 4480 gm ae/ha, 7 to 8 days after application): 27%
stand reduction ([3]; 4480 gm ae/ha, 7 to 8 days after planting and preemergence application): 34%
growth inhibition ([3]; 4480 gm ae/ha, 11 to 14 days after application): 28%
stand reduction ([3]; 4480 gm ae/ha, 11 to 14 days after planting and application): 25%
growth inhibition ([3]; 4480 gm ae/ha, 27 to 30 days after application): 17%
growth inhibition ([3]; 4480 gm ae/ha, 52 to 57 days after application): 8.3%
Differences in plant height, fruiting pattern, and yield [3, 5]: not detected
epinasty [3, 5]: did not cause epinasty
effect on plant stands ([3]; preemergence 560, 1120 and 2240 gm ae/ha, compared to untreated plot): did not significantly affect plant stands
Percent Plant Injury ([4]; 1120 g ae/ha): 12%
Percent Plant Injury ([4]; 2240 g ae/ha): 16%
Percent Plant Injury ([4]; 4480 g ae/ha): 31%
